{
  "source": "PubChem BioAssay (NCI)",
  "note": "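Method: 48-hour compound exposure of cells in 96-well plates, five concentrations, linear interpolation of endpoints. At the TGI there is no net growth.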",
  "data": [
    {"test_system": "MDA-MB-435", "experiment": "inhibition of tumour cell growth, NCI panel, 48 h", "units": {"TGI": "µM"}, "values": [
      {"smiles": "Cn1c2ccccc2c2c(=S)c3ccccc3ccc21", "TGI": "> 100"},
      {"smiles": "CCOc1c(OC)cc(-c2nc3n(n2)C(=O)C(CC)S3)cc1OC", "note": "(stereo not given)", "TGI": "> 10"},
      {"smiles": "CC1OC(O[C@H]2C3C=CO[C@@H](OC4OC(CO)C(O)C(O)C4O)C3[C@@]3(COC(=O)/C=C/c4ccccc4)O[C@@H]23)C(O)C(O)C1O", "note": "(stereo not given in full)", "TGI": "> 100"},
      {"smiles": "O=C1C(=Nc2ccc(Nc3ccccc3)cc2)Oc2ccccc21", "TGI": 3.45}
    ]},
    {"test_system": "OVCAR-3 ovarian", "experiment": "inhibition of tumour cell growth, NCI panel, 48 h", "units": {"TGI": "µM"}, "values": [
      {"smiles": "Cn1c2ccccc2c2c(=S)c3ccccc3ccc21", "TGI": "> 100"},
      {"smiles": "CCOc1c(OC)cc(-c2nc3n(n2)C(=O)C(CC)S3)cc1OC", "note": "(stereo not given)", "TGI": "> 10"},
      {"smiles": "CC1OC(O[C@H]2C3C=CO[C@@H](OC4OC(CO)C(O)C(O)C4O)C3[C@@]3(COC(=O)/C=C/c4ccccc4)O[C@@H]23)C(O)C(O)C1O", "note": "(stereo not given in full)", "TGI": "> 100"},
      {"smiles": "O=C1C(=Nc2ccc(Nc3ccccc3)cc2)Oc2ccccc21", "TGI": 4.42}
    ]},
    {"test_system": "HL-60(TB) leukemia", "experiment": "inhibition of tumour cell growth, NCI panel, 48 h", "units": {"TGI": "µM"}, "values": [
      {"smiles": "Cn1c2ccccc2c2c(=S)c3ccccc3ccc21", "TGI": "> 100"},
      {"smiles": "CCOc1c(OC)cc(-c2nc3n(n2)C(=O)C(CC)S3)cc1OC", "note": "(stereo not given)", "TGI": "> 10"},
      {"smiles": "CC1OC(O[C@H]2C3C=CO[C@@H](OC4OC(CO)C(O)C(O)C4O)C3[C@@]3(COC(=O)/C=C/c4ccccc4)O[C@@H]23)C(O)C(O)C1O", "note": "(stereo not given in full)", "TGI": "> 100"},
      {"smiles": "O=C1C(=Nc2ccc(Nc3ccccc3)cc2)Oc2ccccc21", "TGI": 4.9}
    ]},
    {"test_system": "SNB-19 CNS", "experiment": "inhibition of tumour cell growth, NCI panel, 48 h", "units": {"TGI": "µM"}, "values": [
      {"smiles": "Cn1c2ccccc2c2c(=S)c3ccccc3ccc21", "TGI": "> 100"},
      {"smiles": "CCOc1c(OC)cc(-c2nc3n(n2)C(=O)C(CC)S3)cc1OC", "note": "(stereo not given)", "TGI": "> 10"},
      {"smiles": "CC1OC(O[C@H]2C3C=CO[C@@H](OC4OC(CO)C(O)C(O)C4O)C3[C@@]3(COC(=O)/C=C/c4ccccc4)O[C@@H]23)C(O)C(O)C1O", "note": "(stereo not given in full)", "TGI": "> 100"},
      {"smiles": "O=C1C(=Nc2ccc(Nc3ccccc3)cc2)Oc2ccccc21", "TGI": 8.25}
    ]},
    {"test_system": "NCI-H460 lung", "experiment": "inhibition of tumour cell growth, NCI panel, 48 h", "units": {"TGI": "µM"}, "values": [
      {"smiles": "Cn1c2ccccc2c2c(=S)c3ccccc3ccc21", "TGI": "> 100"},
      {"smiles": "CCOc1c(OC)cc(-c2nc3n(n2)C(=O)C(CC)S3)cc1OC", "note": "(stereo not given)", "TGI": "> 10"},
      {"smiles": "CC1OC(O[C@H]2C3C=CO[C@@H](OC4OC(CO)C(O)C(O)C4O)C3[C@@]3(COC(=O)/C=C/c4ccccc4)O[C@@H]23)C(O)C(O)C1O", "note": "(stereo not given in full)", "TGI": "> 100"},
      {"smiles": "O=C1C(=Nc2ccc(Nc3ccccc3)cc2)Oc2ccccc21", "TGI": 30.5}
    ]},
    {"test_system": "HCT-116 colon", "experiment": "inhibition of tumour cell growth, NCI panel, 48 h", "units": {"TGI": "µM"}, "values": [
      {"smiles": "Cn1c2ccccc2c2c(=S)c3ccccc3ccc21", "TGI": "> 100"},
      {"smiles": "CCOc1c(OC)cc(-c2nc3n(n2)C(=O)C(CC)S3)cc1OC", "note": "(stereo not given)", "TGI": "> 10"},
      {"smiles": "CC1OC(O[C@H]2C3C=CO[C@@H](OC4OC(CO)C(O)C(O)C4O)C3[C@@]3(COC(=O)/C=C/c4ccccc4)O[C@@H]23)C(O)C(O)C1O", "note": "(stereo not given in full)", "TGI": "> 100"},
      {"smiles": "O=C1C(=Nc2ccc(Nc3ccccc3)cc2)Oc2ccccc21", "TGI": 3.18}
    ]},
    {"test_system": "SNB-75 CNS", "experiment": "inhibition of tumour cell growth, NCI panel, 48 h", "units": {"TGI": "µM"}, "values": [
      {"smiles": "Cn1c2ccccc2c2c(=S)c3ccccc3ccc21", "TGI": "> 100"},
      {"smiles": "CCOc1c(OC)cc(-c2nc3n(n2)C(=O)C(CC)S3)cc1OC", "note": "(stereo not given)", "TGI": "> 10"},
      {"smiles": "CC1OC(O[C@H]2C3C=CO[C@@H](OC4OC(CO)C(O)C(O)C4O)C3[C@@]3(COC(=O)/C=C/c4ccccc4)O[C@@H]23)C(O)C(O)C1O", "note": "(stereo not given in full)", "TGI": "> 100"},
      {"smiles": "O=C1C(=Nc2ccc(Nc3ccccc3)cc2)Oc2ccccc21", "TGI": 8.52}
    ]},
    {"test_system": "MOLT-4 leukemia", "experiment": "inhibition of tumour cell growth, NCI panel, 48 h", "units": {"TGI": "µM"}, "values": [
      {"smiles": "Cn1c2ccccc2c2c(=S)c3ccccc3ccc21", "TGI": "> 100"},
      {"smiles": "CCOc1c(OC)cc(-c2nc3n(n2)C(=O)C(CC)S3)cc1OC", "note": "(stereo not given)", "TGI": "> 10"},
      {"smiles": "CC1OC(O[C@H]2C3C=CO[C@@H](OC4OC(CO)C(O)C(O)C4O)C3[C@@]3(COC(=O)/C=C/c4ccccc4)O[C@@H]23)C(O)C(O)C1O", "note": "(stereo not given in full)", "TGI": "> 100"},
      {"smiles": "O=C1C(=Nc2ccc(Nc3ccccc3)cc2)Oc2ccccc21", "TGI": 6.39}
    ]},
    {"test_system": "KM12 colon", "experiment": "inhibition of tumour cell growth, NCI panel, 48 h", "units": {"TGI": "µM"}, "values": [
      {"smiles": "Cn1c2ccccc2c2c(=S)c3ccccc3ccc21", "TGI": "> 100"},
      {"smiles": "CCOc1c(OC)cc(-c2nc3n(n2)C(=O)C(CC)S3)cc1OC", "note": "(stereo not given)", "TGI": "> 10"},
      {"smiles": "CC1OC(O[C@H]2C3C=CO[C@@H](OC4OC(CO)C(O)C(O)C4O)C3[C@@]3(COC(=O)/C=C/c4ccccc4)O[C@@H]23)C(O)C(O)C1O", "note": "(stereo not given in full)", "TGI": "> 100"},
      {"smiles": "O=C1C(=Nc2ccc(Nc3ccccc3)cc2)Oc2ccccc21", "TGI": 4.03}
    ]},
    {"test_system": "SN12C renal", "experiment": "inhibition of tumour cell growth, NCI panel, 48 h", "units": {"TGI": "µM"}, "values": [
      {"smiles": "Cn1c2ccccc2c2c(=S)c3ccccc3ccc21", "TGI": "> 100"},
      {"smiles": "CCOc1c(OC)cc(-c2nc3n(n2)C(=O)C(CC)S3)cc1OC", "note": "(stereo not given)", "TGI": "> 10"},
      {"smiles": "CC1OC(O[C@H]2C3C=CO[C@@H](OC4OC(CO)C(O)C(O)C4O)C3[C@@]3(COC(=O)/C=C/c4ccccc4)O[C@@H]23)C(O)C(O)C1O", "note": "(stereo not given in full)", "TGI": "> 100"},
      {"smiles": "O=C1C(=Nc2ccc(Nc3ccccc3)cc2)Oc2ccccc21", "TGI": 4.62}
    ]}
  ]
}
